We go through 2 compounds from patent US12441709B2, “Therapeutic compounds” (INDIVIOR UK LIMITED, priority 2016, dated 2025).

Assay [1] concerns the target T1, human OX2 receptor (Homo sapiens, UniProt O43614).
T1 construct: expressed in transfected cells; host or cells: CHO cell line (membranes)
T1 sequence (O43614 1-444): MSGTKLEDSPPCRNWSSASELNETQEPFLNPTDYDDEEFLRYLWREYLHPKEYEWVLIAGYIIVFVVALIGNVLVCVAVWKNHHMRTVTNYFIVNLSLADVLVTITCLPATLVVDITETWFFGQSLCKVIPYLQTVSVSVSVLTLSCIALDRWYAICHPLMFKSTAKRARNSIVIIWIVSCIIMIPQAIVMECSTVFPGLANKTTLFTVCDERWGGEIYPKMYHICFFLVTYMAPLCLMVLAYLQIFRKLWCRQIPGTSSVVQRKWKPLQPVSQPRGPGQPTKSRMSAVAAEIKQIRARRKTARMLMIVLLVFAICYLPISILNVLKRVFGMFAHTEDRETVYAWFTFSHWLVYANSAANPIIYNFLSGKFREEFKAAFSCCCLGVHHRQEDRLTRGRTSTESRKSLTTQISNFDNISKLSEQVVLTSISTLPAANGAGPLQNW
Description: Orexin 2 receptor radioligand binding assay ([3H]-EMPA competition). The conditions noted are these: CHO membranes, 2 nM [3H]-EMPA, 60 min room temperature; read-out: hOX2 pKi (converted). As for the experimental part:
Orexin 2 Receptor Radioligand Binding Assay:
Cell membranes were prepared from the human Ox2 receptor expressing CHO cell line. The harvested cell pellets were homogenized in ice-cold buffer (15 mM TrisHCl (pH 7.4), 2 mM MgCl2, 0.3 mM EDTA, 1 mM EGTA, Sigma FAST™ protease inhibitor cocktail) and centrifuged at 45,000 rpm for 30 min at 4° C. After discarding the supernatants the pellets were re-suspended in the before mentioned buffer followed by homogenization and another centrifugation. Obtained pellets were re-suspended in ice cold buffer containing 75 mM TrisHCl (pH 7.5), 12.5 mM MgCl2, 0.3 mM EDTA, 1 mM EGTA, 250 mM sucrose and a Sigma FAST TM protease inhibitor cocktail. After protein quantification with the Pierce Protein Assay Kit, using BSA as standard, the membrane homogenates were aliquoted and frozen down at […] until further use.
Expression levels of the Ox2 receptor (Bmax) were determined by saturation binding and the Kd of the radioligand [^3H]EMPA was determined by association and dissociation kinetics. Data were elaborated with Graph Pad Prism using radioligand binding analysis. Steady state binding was reached after 60 min of incubation at room temperature. […]

The target of assay [2] is T1, human OX2 receptor. Nature of the assay: Ox2 antagonist FLIPR assay (calcium, orexin A at EC75). The format is cell-based. The conditions noted are these: CHO cells expressing human OX2; top concentration at least 10 μM; at least four replicates; read-out: hOX2 pIC50 (converted). An excerpt:
Antagonism against orexin receptors has been measured for each example compound using at least one of the following procedures. Antagonism is reported as a pIC50, where pIC50=−log10(IC50) and where IC50 is the concentration of example compound needed to inhibit 50% of the agonist response. These values may fluctuate depending on the daily cellular assay performance. Fluctuations of this kind are known to those skilled in the art. All reported values are the result of at least four replicate experiments. Ox2 values are only reported from dose response curves for which the top concentration is at least 10 μM.
Ox1 and Ox2 Antagonist FLIPR Assay: […]
The next day media is removed and replaced with 30 μL/well of cell loading buffer (a vial of Calcium 5 is solubilized in 20 mL of assay buffer) and the cells incubated for 1 hr at 37° C. The serially diluted test compounds (10 μL/well) are added to the cell plate by the FLIPR Tetra and the addition is monitored for 5 min by the instrument. […] Finally 10 μL of orexin Ain assay buffer+0.1% (w/v) bovine serum albumin is dispensed by the FLIPR Tetra at an EC75 concentration determined for each receptor on the day of the assay. Fluorescence is measured at excitation and emission wavelengths of 485 nm and 525 nm, respectively and data analyzed using Graph Pad Prism for the EC75 value of orexin A and Aplus to determine a pIC50 value for each test compound. […]

For `Cc1ccc(-n2nccn2)c(C(=O)N(C)[C@@H](C)CNc2ncc(C(F)(F)F)cn2)n1` [Example 2, N,6-dimethyl-3-(2H-1,2,3-triazol-2-yl)-N-[(2S)-1-{[5-(trifluoromethyl)pyrimidin-2-yl]amino}propan-2-yl]pyridine-2-carboxamide], the Ki in assay [1] was 0.794 µM. Further, the IC50 in assay [2] is 2 µM.

In the case of `Cc1ccc(-n2nccn2)c(C(=O)N(C)[C@@H](C)CNc2cnc(C(F)(F)F)cn2)n1` [Example 1, N,6-dimethyl-3-(2H-1,2,3-triazol-2-yl)-N-[(2S)-1-{[5-(trifluoromethyl)pyrazin-2-yl]amino}propan-2-yl]pyridine-2-carboxamide], the Ki in assay [1] is 0.251 µM. The IC50 in assay [2] is 1 µM.
